Assay [1] addresses T1, Sucrase-isomaltase, intestinal (Rattus norvegicus, UniProt P23739). Briefly: Inhibition of rat small intestinal isomaltase after 30 mins by glucose-oxidase method.
Assay [2] deals with Lysosomal alpha-glucosidase (Rattus norvegicus) (UniProt Q6P7A9). Conditions: 100 ug/ml.
Description: Inhibition of rat small intestinal maltase at 100 ug/ml after 30 mins by glucose-oxidase method
The target in assay [3] is T1, Sucrase-isomaltase, intestinal. Description: Inhibition of rat small intestinal sucrase after 30 mins by glucose-oxidase method.
The target of assay [4] is Sucrase-isomaltase, intestinal (Rattus norvegicus) (UniProt P23739). Conditions: 100 ug/ml.
Sucrase-isomaltase, intestinal (Rattus norvegicus), sequence (P23739 1-1013 limits assumed): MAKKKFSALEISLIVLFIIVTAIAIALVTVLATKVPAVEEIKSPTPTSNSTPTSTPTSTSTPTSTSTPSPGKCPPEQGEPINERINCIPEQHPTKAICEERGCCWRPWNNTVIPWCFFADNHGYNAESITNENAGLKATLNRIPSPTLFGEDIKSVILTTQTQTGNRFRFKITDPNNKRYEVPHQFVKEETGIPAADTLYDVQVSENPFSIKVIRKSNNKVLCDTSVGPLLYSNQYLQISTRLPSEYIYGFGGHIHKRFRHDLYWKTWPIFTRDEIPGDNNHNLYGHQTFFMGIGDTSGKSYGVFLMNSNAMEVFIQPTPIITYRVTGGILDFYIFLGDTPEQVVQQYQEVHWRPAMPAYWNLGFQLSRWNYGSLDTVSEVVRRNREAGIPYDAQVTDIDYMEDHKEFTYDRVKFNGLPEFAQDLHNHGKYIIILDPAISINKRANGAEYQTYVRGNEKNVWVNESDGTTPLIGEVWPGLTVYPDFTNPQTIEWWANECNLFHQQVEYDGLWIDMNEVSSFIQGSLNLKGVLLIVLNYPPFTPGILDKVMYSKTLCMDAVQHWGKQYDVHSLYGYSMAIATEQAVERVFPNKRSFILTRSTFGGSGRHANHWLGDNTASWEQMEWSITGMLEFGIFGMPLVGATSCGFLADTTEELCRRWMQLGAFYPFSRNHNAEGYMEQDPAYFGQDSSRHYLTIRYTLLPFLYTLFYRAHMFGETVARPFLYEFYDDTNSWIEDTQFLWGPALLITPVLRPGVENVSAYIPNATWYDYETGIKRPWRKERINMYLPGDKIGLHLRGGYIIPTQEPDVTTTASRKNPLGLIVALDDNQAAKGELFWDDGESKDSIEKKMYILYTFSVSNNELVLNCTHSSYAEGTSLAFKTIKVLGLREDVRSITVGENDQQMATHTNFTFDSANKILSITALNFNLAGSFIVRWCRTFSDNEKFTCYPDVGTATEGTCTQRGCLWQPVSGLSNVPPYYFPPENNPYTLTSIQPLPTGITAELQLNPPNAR
Sucrase-isomaltase, intestinal (Rattus norvegicus), sequence (P23739 1014-1841 limits assumed): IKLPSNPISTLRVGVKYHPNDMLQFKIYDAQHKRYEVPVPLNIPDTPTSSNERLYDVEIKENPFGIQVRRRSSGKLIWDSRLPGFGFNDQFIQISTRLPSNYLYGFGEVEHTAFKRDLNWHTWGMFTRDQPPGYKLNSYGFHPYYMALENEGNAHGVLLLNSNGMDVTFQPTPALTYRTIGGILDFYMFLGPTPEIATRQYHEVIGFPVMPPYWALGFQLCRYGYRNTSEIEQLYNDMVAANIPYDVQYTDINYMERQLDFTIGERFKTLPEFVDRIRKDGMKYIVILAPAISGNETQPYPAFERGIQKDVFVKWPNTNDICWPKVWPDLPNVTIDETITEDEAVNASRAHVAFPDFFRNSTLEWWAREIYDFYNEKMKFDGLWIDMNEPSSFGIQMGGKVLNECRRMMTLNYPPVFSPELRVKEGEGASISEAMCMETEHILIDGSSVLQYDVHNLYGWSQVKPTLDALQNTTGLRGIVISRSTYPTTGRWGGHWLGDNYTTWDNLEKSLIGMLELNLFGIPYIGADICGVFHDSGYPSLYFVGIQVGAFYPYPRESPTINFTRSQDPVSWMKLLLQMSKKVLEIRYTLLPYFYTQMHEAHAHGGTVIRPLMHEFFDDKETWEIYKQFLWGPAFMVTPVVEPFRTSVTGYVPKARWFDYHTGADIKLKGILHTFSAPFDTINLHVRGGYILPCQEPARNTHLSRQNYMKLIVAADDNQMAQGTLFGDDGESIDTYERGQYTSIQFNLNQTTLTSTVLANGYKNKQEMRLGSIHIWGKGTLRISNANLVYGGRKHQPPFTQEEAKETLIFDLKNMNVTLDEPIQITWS
Description: Inhibition of rat small intestinal sucrase at 100 ug/ml after 30 mins by glucose-oxidase method

T1 sequence (P23739 1-1013 limits assumed): as the sequence (P23739 1-1013 limits assumed) above
T1 sequence (P23739 1014-1841 limits assumed): as the sequence (P23739 1014-1841 limits assumed) above
Lysosomal alpha-glucosidase (Rattus norvegicus), sequence (Q6P7A9 whole entry): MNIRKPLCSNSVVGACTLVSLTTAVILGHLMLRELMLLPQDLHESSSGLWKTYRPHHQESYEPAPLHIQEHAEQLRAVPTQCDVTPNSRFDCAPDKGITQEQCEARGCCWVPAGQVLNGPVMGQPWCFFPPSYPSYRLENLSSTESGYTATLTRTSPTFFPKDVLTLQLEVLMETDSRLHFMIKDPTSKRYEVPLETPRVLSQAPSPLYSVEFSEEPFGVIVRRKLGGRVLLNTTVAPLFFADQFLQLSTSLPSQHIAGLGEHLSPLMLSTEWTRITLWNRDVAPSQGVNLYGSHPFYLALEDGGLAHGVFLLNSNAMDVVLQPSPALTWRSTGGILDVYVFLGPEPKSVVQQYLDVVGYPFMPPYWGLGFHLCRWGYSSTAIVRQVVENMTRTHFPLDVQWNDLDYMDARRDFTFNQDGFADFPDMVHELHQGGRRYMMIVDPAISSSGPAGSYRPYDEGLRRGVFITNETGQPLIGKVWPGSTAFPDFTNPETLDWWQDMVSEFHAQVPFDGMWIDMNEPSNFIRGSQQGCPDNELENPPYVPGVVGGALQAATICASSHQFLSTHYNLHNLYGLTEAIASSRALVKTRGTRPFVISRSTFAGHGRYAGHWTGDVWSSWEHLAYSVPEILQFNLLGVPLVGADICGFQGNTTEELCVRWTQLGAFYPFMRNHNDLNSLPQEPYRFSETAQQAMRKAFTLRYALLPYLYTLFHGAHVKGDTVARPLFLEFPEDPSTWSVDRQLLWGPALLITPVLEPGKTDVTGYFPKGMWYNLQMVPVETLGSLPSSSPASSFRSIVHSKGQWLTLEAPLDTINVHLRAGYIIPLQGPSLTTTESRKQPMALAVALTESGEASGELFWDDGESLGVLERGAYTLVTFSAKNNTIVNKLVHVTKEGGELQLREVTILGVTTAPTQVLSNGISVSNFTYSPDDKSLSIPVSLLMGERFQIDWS

`O=S(=O)([O-])O[C@@H]([C@@H](O)[C@H](O)[C@@H](O)CO)[C@H](O)C[S@+]1C[C@@H](O)[C@H](O)[C@H]1CO`: the IC50 – broadly, the concentration needed to halve the response being measured – stood at 11 µM in assay [1] and 136 µM in assay [3]. Besides, in assay [2], the inhibition (usually the change of the read-out against control, counted positive when it falls) amounted to 42%.
For the molecule `O=S(=O)([O-])O[C@@H]([C@@H](O)[C@@H](O)[C@@H](O)CO)[C@H](O)C[S@+]1C[C@@H](O)[C@H](O)[C@H]1CO`, the IC50 in assay [1] stood at 6.5 µM; in assay [3], 32 µM.
Take `O=S(=O)([O-])O[C@H]([C@@H](O)[C@@H](O)[C@H](O)CO)[C@H](O)C[S@+]1C[C@@H](O)[C@H](O)[C@H]1CO` (mixture of isomers): the IC50 is 16 µM in assay [1] and more than 236 µM in assay [3]. Besides, the inhibition in assay [4] came to 8%; in assay [2], 25%.
Take `O=S(=O)([O-])O[C@H]([C@@H](O)[C@H](O)[C@H](O)CO)[C@H](O)C[S@+]1C[C@@H](O)[C@H](O)[C@H]1CO`: the figures for the 50% inhibitory concentration (IC50) in assay [1] and in assay [3] were 58 µM and 55 µM, respectively.
For the molecule `O=S(=O)([O-])O[C@@H]([C@@H](O)[C@H](O)[C@H](O)CO)[C@H](O)C[S@+]1C[C@@H](O)[C@H](O)[C@H]1CO`, the IC50 in assay [1] amounted to 16 µM; in assay [3] it was 214 µM. The molecule also registered an inhibition in assay [2] of 44%.
With `O=S(=O)([O-])O[C@@H]([C@@H](O)[C@@H](O)[C@H](O)CO)[C@H](O)C[S@+]1C[C@@H](O)[C@H](O)[C@H]1CO`, the IC50 in assay [1] worked out at 1.6 µM; in assay [3] it was 67 µM.
On to `O=S(=O)([O-])O[C@H]([C@@H](O)[C@H](O)[C@@H](O)CO)[C@H](O)C[S@+]1C[C@@H](O)[C@H](O)[C@H]1CO`, for which the values for the concentration for half-maximal inhibition (IC50) in assay [1] and in assay [3] were 20 µM and more than 236 µM, respectively. Also, the inhibition in assay [4] was 28%; in assay [2], 32%.
For `O=S(=O)([O-])O[C@H]([C@@H](O)[C@@H](O)[C@@H](O)CO)[C@H](O)C[S@+]1C[C@@H](O)[C@H](O)[C@H]1CO`, the figures for the IC50 in assay [1] and in assay [3] were 21 µM and more than 236 µM, respectively. Moreover, the results for the inhibition in assay [4] and in assay [2] were 34% and 45%, respectively.

For the origin of these results see ChEMBL document CHEMBL2157943, “Role of the side chain stereochemistry in the α-glucosidase inhibitory activity of kotalanol, a potent natural α-glucosidase inhibitor. Part 2” (Bioorg Med Chem, 2012).
